Reference: US20140329863A1 (priority 2011, published 2014)

Key:
PrP^C in IMR32 cells = format: cell-based, human; further: test concentration or dose not given here
T98G cells = experiment: cells; format: cell-based, human; conditions: calcein, T98G cells
IMR32 cells = format: cell-based, human
PrP^C in T98G cells = format: cell-based, human; further: test concentration or dose not given here
[1] = "rat human hepatic microsomes", NADPH with UDPGA or PBS
Wherever % Inhibition: Calcein (IMR32) is given: test concentration or dose not given here.
Wherever % Inhibition: Calcein (T98G) is given: test concentration or dose not given here.

Structure (SMILES) | % Inhibition: SPC (IMR32) (PrP^C in IMR32 cells) | % Inhibition: Calcein (T98G) (T98G cells) | % Inhibition: Calcein (IMR32) (IMR32 cells) | % Inhibition: SPC (T98G) (PrP^C in T98G cells) | T1/2, control incubations [1]
Cc1cccc(N2CCN(C(=O)c3ccc4c(c3)OCO4)CC2)c1C [IND-0023025] | MW: 338.4 % Inhibition: SPC (IMR32): 34 Calcein: 15 SPC (T98G): 34 Calcein: 26 | 26% | 15% | MW: 338.4 % Inhibition: SPC (IMR32): 34 Calcein: 15 SPC (T98G): 34 Calcein: 26 | 
COc1ccc(C(NC(C)=O)c2ccc3cccnc3c2O)cc1 (centres unmarked) [IND-0058521] | MW: 322.4 % Inhibition: SPC (IMR32): 56 Calcein: 17 SPC (T98G): 49 Calcein: 3 | 3% | 17% | MW: 322.4 % Inhibition: SPC (IMR32): 56 Calcein: 17 SPC (T98G): 49 Calcein: 3 | 
CCS(=O)(=O)c1ncc(Cl)c(C(=O)Nc2ccccc2C)n1 [IND-0081396] | MW: 339.8 % Inhibition: SPC (IMR32): 91 Calcein: 15 SPC (T98G): −5 Calcein: −8 | −8% | 15% | MW: 339.8 % Inhibition: SPC (IMR32): 91 Calcein: 15 SPC (T98G): −5 Calcein: −8 | 
CCS(=O)(=O)c1ncc(Cl)c(C(=O)Nc2ccc(F)cc2)n1 [IND-0081737] | MW: 343.8 % Inhibition: SPC (IMR32): 41 Calcein: 18 SPC (T98G): −10 Calcein: −4 | −4% | 18% | MW: 343.8 % Inhibition: SPC (IMR32): 41 Calcein: 18 SPC (T98G): −10 Calcein: −4 | 
N#Cc1c(NC(=O)CCc2cccs2)sc2c1CCCC2 [IND-0082865] | MW: 316.4 % Inhibition: SPC (IMR32): 60 Calcein: 37 SPC (T98G): 51 Calcein: 17 | 17% | 37% | MW: 316.4 % Inhibition: SPC (IMR32): 60 Calcein: 37 SPC (T98G): 51 Calcein: 17 | 
COc1ccc(C(=O)NCc2cc(C)nc3ccccc23)cc1 [IND-0086056] | MW: 306.4 % Inhibition: SPC (IMR32): 45 Calcein: 18 SPC (T98G): 49 Calcein: 20 | 20% | 18% | MW: 306.4 % Inhibition: SPC (IMR32): 45 Calcein: 18 SPC (T98G): 49 Calcein: 20 | 
CC(C)c1ccc(NC(=O)Nc2cnccn2)cc1 [IND-0088907] | MW: 256.3 % Inhibition: SPC (IMR32): 4 Calcein: 9 SPC (T98G): 46 Calcein: 27 | 27% | 9% | MW: 256.3 % Inhibition: SPC (IMR32): 4 Calcein: 9 SPC (T98G): 46 Calcein: 27 | 
Cc1ncc2n1-c1ccc(Cl)cc1C(c1ccccc1F)=NC2 [Midazolam, reference compound] |  |  |  |  | 11 min
